Drawing on patent US20230157996A1, “SMALL-MOLECULE INHIBITOR TARGETING EB VIRUS NUCLEAR ANTIGEN PROTEIN, PREPARATION METHOD AND USE THEREOF” (priority 2020, published 2023), this text covers inhibition for 28 compounds.

In this assay the test system is C666-1 cells. Put plainly: C666-1 cell viability single concentration (50 μM) inhibition rate (Resazurin). The class given is cell-based. The following applies: Homo sapiens, C6661, 72 h, 50 μM compound, 72 hours, C666-1 cells; read-out: C666-1 cell viability single concentration (50 μM) inhibition rate, Ratio* (Inh %). Summed up:
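EBV-positive C666-1 cells (5×10^3/well), pre-cultured 24 h, were exposed to compound at 50 μmol/L final for 72 h at 37° C, 5% CO2, in duplicate. Viability by resazurin (3 h, ex 560/em 590 nm); inhibition rate computed relative to DMSO control and medium-only blank.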
For orientation: Resazurin is reduced to fluorescent resorufin, in cell work by metabolically active cells.

As to `COc1cccc(-c2c(C(=O)O)cccc2N2CC(Oc3ccc(CO)cc3)C2)c1` [Compound 67, 3′-methoxy-6-(3-(4-(hydroxymethyl)phenoxy)azetidin-1-yl)-[1,1′-biphenyl]-2-formic acid], the inhibition at 50 µM is less than 10%.
For `CCCCOc1ccc(OC2CN(c3cccc(C(=O)OC)c3-n3cccc3)C2)cc1` [Example 107, Methyl 3-(3-(4-butoxyphenoxy)azetidin-1-yl)-2-(1H-pyrrol-1-yl)benzoate], the inhibition at 50 µM is less than 10%.
The figure for `O=C(Nc1ccc(Oc2ccccc2)cc1)NC1CN(c2cccc(C(=O)O)c2-n2cccc2)C1` [Example 167, 3-(3-(3-(4-phenoxyphenyl)ureido)azetidin-1-yl)-2-(1H-pyrrol-1-yl)benzoic acid] is less than 10%; for `O=C(O)c1cccc(C23CC(c4ccccc4)(C2)C3)c1` [Compound 4, 3-(3-phenylbicyclo[1.1.1]pentan-1-yl)benzoic acid] it is less than 10%; for `CCNC(=S)OCc1ccc(OC2CN(c3cccc(C(=O)OC)c3-n3cccc3)C2)cc1` [Example 238] it is 10 to 30%.
Then `O=C(Nc1ccc(OC2CN(c3cccc(C(=O)O)c3-n3cccc3)C2)cc1)Nc1ccccc1Cl` [Example 136, 3-(3-(4-(3-(2-chlorophenyl)ureido)phenoxy)azetidin-1-yl)-2-(1H-pyrrol-1-yl)benzoic acid], with less than 10%; and `COC(=O)c1cccc(N2CC(Oc3ccc(Oc4cccc(C(C)=O)c4)cc3)C2)c1-n1cccc1` [Example 293, Methyl 3-(3-(4-(3-acetylphenoxy)phenoxy)azetidin-1-yl)-2-(1H-pyrrol-1-yl)benzoate], with 10 to 30%.
Then `CS(=O)(=O)Nc1nc(-c2ccc(OC3CN(c4cccc(C(=O)O)c4-n4cccc4)C3)cc2)cs1` [Example 262, 3-(3-(4-(2-(methylsulfonamido)thiazol-4-yl)phenoxy)azetidin-1-yl)-2-(1H-pyrrol-1-yl)benzoic acid], with less than 10%; and `O=C(O)c1cccc(N2CC(Oc3ccc(CO)cc3)C2)c1-c1ccc2cc[nH]c2c1` [Compound 40, 3-(3-(4-(hydroxymethyl)phenoxy)azetidin-1-yl)-2-(1H-indol-6-yl)benzoic acid], with less than 10%; and `COC(=O)c1cccc(N2CC3(CN(c4cccc(N)c4)C3)C2)c1N` [Compound 33, Methyl 2-amino-3-(6-(3-aminophenyl)-2,6-diazaspiro[3.3]heptan-2-yl)benzoate], with 10 to 30%.
For the compound `COC(=O)c1ccc(N2CC3(C2)CN(c2cccc(C(=O)OC)c2-n2cccc2)C3)cc1` [Compound 23, Methyl 3-(6-(4-(methoxycarbonyl)phenyl)-2,6-diazaspiro[3.3]heptan-2-yl)-2-(1H-pyrrol-1-yl)benzoate], the inhibition at 50 µM was less than 10%.
Turning to `CC(=O)c1ccc(Oc2ccc(OC3CN(c4cccc(C(=O)O)c4-n4cccc4)C3)cc2)cc1` [Example 207, 3-(3-(4-(4-acetylphenoxy)phenoxy)azetidin-1-yl)-2-(1H-pyrrol-1-yl)benzoic acid], the inhibition at 50 µM lay within 10 to 30%.
As for `COCCOCc1ccc(OC2CN(c3cccc(C(=O)OC)c3-n3cccc3)C2)cc1` [Example 370], the inhibition at 50 µM lay within 10 to 30%.
As to `O=C(O)c1cccc(N2CC(OCc3cscn3)C2)c1-n1cccc1` [Example 141], the inhibition at 50 µM was less than 10%.
The figure for `COC(=O)c1cccc(N2CC(NC(=O)Nc3ccc(Oc4ccccc4)cc3)C2)c1-n1cccc1` [Example 165, Methyl 3-(3-(3-(4-phenoxyphenyl)ureido)azetidin-1-yl)-2-(H-pyrrol-1-yl)benzoate] is 10 to 30%; for `COC(=O)c1cccc(C#CN(Cc2ccccc2)S(=O)(=O)c2cccs2)c1-n1cccc1` [Example 322, Methyl 3-((N-benzylthiophen-2-sulfonamido)ethynyl)-2-(1H-pyrrol-1-yl)benzoate] it is 10 to 30%.
Regarding `CC(=O)c1cccc(Oc2ccc(OC3CN(c4cccc(C(=O)O)c4-n4cccc4)C3)cc2)c1` [Example 294, 3-(3-(4-(3-acetylphenoxy)phenoxy)azetidin-1-yl)-2-(1H-pyrrol-1-yl)benzoic acid], the inhibition at 50 µM was less than 10%.
For `COc1ccccc1NC(=O)Nc1ccc(OC2CN(c3cccc(C(=O)O)c3-n3cccc3)C2)cc1` [Example 289, 3-(3-(4-(3-(2-methoxyphenyl)ureido)phenoxy)azetidin-1-yl)2-(1H-pyrrol-1-yl)benzoic acid], the inhibition at 50 µM was in the range of 10 to 30%.
Then `COC(=O)c1cccc(N2CC(Oc3ccc(CO)cc3)C2)c1-c1cccc(NS(C)(=O)=O)c1` [Compound 65, Methyl 3′-(methylsulfonamido)-6-(3-(4-(hydroxymethyl)phenoxy)azetidin-1-yl)-[1,1′-biphenyl]-2-formate], with 30 to 50%.
Then `O=C(O)c1cccc(N2CC3(CN(c4ccccc4[N+](=O)[O-])C3)C2)c1-n1cccc1` [Compound 22, 3-(6-(2-nitrophenyl)-2,6-diazaspiro[3.3]heptan-2-yl)-2-(1H-pyrrol-1-yl)benzoic acid], with less than 10%; and `COC(=O)c1cccc(N2CC(Oc3ccc(N(C)C)cc3)C2)c1-n1cccc1` [Example 97, Methyl 3-(3-(4-(dimethylamino)phenoxy)azetidin-1-yl)-2-(1H-pyrrol-1-yl)benzoate], with 10 to 30%.
Consider `CCNC(=S)OC1CN(c2cccc(C(=O)O)c2-n2cccc2)C1` [Example 161, 3-(3-((ethylthiocarbamoyl)oxy)azetidin-1-yl)-2-(1H-pyrrol-1-yl)benzoic acid], for which the inhibition at 50 µM is less than 10%.
As to `COC(=O)c1cccc(C2CC2c2ccccc2)c1N` (stereo not shown) [Example 391, Methyl 2-amino-3-(2-phenylcyclopropyl)benzoate], the inhibition at 50 µM was less than 10%.
In the case of `COC(=O)c1cccc(N2CC(Oc3ccc(COc4ccc(F)cc4)cc3)C2)c1-n1cccc1` [Example 245, Methyl 3-(3-(4-((4-fluorophenoxy)methyl)phenoxy)azetidin-1-yl)-2-(1H-pyrrol-1-yl)benzoate], the inhibition at 50 µM was less than 10%.
In the case of `O=C(O)c1cccc(N2CC3(CN(c4cccc([N+](=O)[O-])c4)C3)C2)c1[N+](=O)[O-]` [Compound 26, 3-(6-(3-nitrophenyl)-2,6-diazaspiro[3.3]heptan-2-yl)-2-nitrobenzoic acid], the inhibition at 50 µM is less than 10%.
With `COc1ccc(C(O)C23CC(c4cccc(C(=O)O)c4)(C2)C3)cc1` (stereo not shown) [Example 273, 3-(3-(hydroxyl(4-methoxyphenyl)methyl)bicyclo[1. 1.1]pentan-1-yl)benzoic acid], the inhibition at 50 µM was less than 10%.
The figure for `CC(C)Oc1ccc(OC2CN(c3cccc(C(=O)O)c3-n3cccc3)C2)cc1` [Example 110, 3-(3-(4-isopropoxyphenoxy)azetidin-1-yl)-2-(1H-pyrrol-1-yl)benzoic acid] is less than 10%; for `COC(=O)c1cccc(N2CC(Oc3ccc(C(=O)N4CCOCC4)cc3)C2)c1-n1cccc1` [Example 265, Methyl 3-(3-(4-(morpholinyl-4-carbonyl)phenoxy)azetidin-1-yl)-2-(1H-pyrrol-1-yl)benzoate] it is 10 to 30%.
